The source of these data is article PMC5521794, “Understanding Russell’s viper venom factor V activator’s substrate specificity by surface plasmon resonance and in-silico studies” (PLoS ONE, 2017).

Like-named read-outs stand apart in the source and are kept apart here.

For series [1] the following is noted: ref [16], [17]; cited from earlier work. The text has this:
(§1) Both these proteins are active against different molecular substrates.

In series [2] the test system is fibrinogen, prothrombin, factor VIII, and FX. The note with it: ref [14], [15]; cited from earlier work.
Description: as §1

Series [3] deals with Factor V. The note with it: sites I, II and III of FV; ref [11]; cited from earlier work. The text has this:
Factor V (FV) is a well-studied large protein, consists of six domains, involved in the blood coagulation cascade. […] Both the proteins cleave the FV at three different sites of FV viz., site I (Arg709–Ser710), site II (Arg1018–Thr1019), and site III (Arg1545–Ser1546). Highly glycosylated B domain of FV is removed by these proteases to achieve an active form of FV.

The target of series [4] is T1, RVV-V (Daboia siamensis, UniProt P18965). The note with it: two-state fit. The method, then:
The Russel viper venom was purchased from Irula Snake-Catchers Industrial Cooperative Society (ISCICS), Tamil Nadu, India. The RVV-V was purified as described by Shiffman et al., with some changes. Lyophilized Crude venom (100 mg) was dissolved in 1 ml of 50 mM Sodium Acetate buffer (pH 5.5). The solution was centrifuged at 12,000 rpm for 10 minutes at 4°C and the supernatant was loaded to Sephadex S-100 column (FPLC). Peaks containing the RVV-V were pooled and loaded for CM Sepharose FFCation Exchange (Pharmacia) column (equilibrated with 50 mM sodium acetate buffer pH 5.5). Proteins were eluted with 50mM Na-acetate buffer with gradient 0 to 1 M Sodium Chloride. The fractions of RVV-V were pooled, dialyzed in 50 mM sodium-acetate buffer, and concentrated. Further, the binding kinetics was performed for RVV-V with both the peptides (purchased from Genei™) by SPR method.
The SPR is a well-known primary protein-ligand screening method for the measurement of a real-time, label-free detection of biomolecular interactions like protein-peptide, antibody-antigen, and protein-DNA interactions. A small amount of protein is sufficient and the affinity data are more accurate as the recorded Sensorgram is time-dependent and a continuous flow system. In the experiment the ligand is saturated with an immobilized protein followed by washing, and the association constant (Ka), and the dissociation constant (Kd) are obtained from the binding response data. Biacore T200 optical biosensor was used to get the interaction kinetics of RVV-V with the peptides. The purified RVV-V (concentration of 50 μg/ml in 50 mM sodium acetate buffer, pH 5.5) was immobilized on CM5 chip by amine-coupling method. A constant flow rate of 10μl/min was used to activate the surface of the flow cell for 7 min using a 1:1 mixture of 100 mM N-hydroxysuccinimide (NHS) and 100 mM N-ethyl-N-(dimethylaminopropyl)-carbodiimide (EDC) dissolved in water. The RVV-V was injected for 7 min, and the non-activated carboxy methyl groups on the surface were blocked by 7 min injection of 1 M ethanolamine (pH 8.5) and totally 3000 RU of the RVV-V were immobilized on the chip.
Biacore control software was used for obtaining all data by monitoring the change in the refractive index as a function of time at a flow rate of 30 μl/min. A relative quantity of peptide bound to RVV-V was quantified by calculating the amount of net increase in the refractive index over a period as compared to the initial buffer (PBS) response. The inline subtraction is performed during each run. Before changing each peptide and the peptide-concentration, the surface of the sensor chips was washed by running the buffer (PBS) and the chip was regenerated by injecting 10 mM glycine pH 2.5 for 30 sec. The association and the dissociation times are 120 and 300 sec respectively. For both the peptides, the experiment was performed by changing the concentration of the peptides ranging from 62.5 uM to 1 mM.

In series [5] the target is T1, RVV-V. The note with it: ref [16], [17]; cited from earlier work. The text has this: In general, serine proteases are robust and highly sensitive for the cleavage sites; they contain catalytic triad or diad in the active site. […] Both these proteins are active against different molecular substrates. The molecular structure and the catalytic triad arrangement of the RVV-V are analogous with that of the thrombin.

T1 sequence (P18965 25-260): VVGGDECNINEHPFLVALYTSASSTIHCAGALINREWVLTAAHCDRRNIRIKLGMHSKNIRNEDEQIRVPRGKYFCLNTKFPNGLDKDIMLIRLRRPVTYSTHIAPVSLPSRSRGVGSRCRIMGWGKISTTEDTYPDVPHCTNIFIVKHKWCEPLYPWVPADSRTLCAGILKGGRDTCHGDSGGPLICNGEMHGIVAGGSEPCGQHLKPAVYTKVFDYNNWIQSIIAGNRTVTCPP

In the case of “Russell’s viper venom factor V activator [RVV-V]”, the amidase activity result in series [1] is “weak amidase activity”. In addition, the “effect on structure or activity after prolonged incubation” value in series [2] is “no effect”. Further, the “cleavage of FV sites” value in series [3] was “cleaving the site III and does not cleave the other two thrombin-susceptible sites”.
With 1008KHTHHAPLSPRTFHP1022 [Peptide II], the ka1 amounted to 760.4 M⁻¹ s⁻¹ in series [4] (Biacore T200, RVV-V immobilized on CM5 chip (amine coupling, 3000 RU), PBS, 30 μl/min, peptide 62.5 uM to 1 mM, association 120 s, dissociation 300 s) and 760.4 M⁻¹ s⁻¹ in series [4] (first reaction). The same molecule yielded a Kd1 in series [4] (Biacore T200, RVV-V on CM5 chip, PBS, peptide 62.5 uM to 1 mM, dissociation rate constant of first step) of 2.414 s⁻¹. The kd2 worked out at 0.001942 s⁻¹ in series [4] (Biacore T200, RVV-V on CM5 chip, PBS, peptide 62.5 uM to 1 mM, second step) and 0.001942 s⁻¹ in series [4] (second (more stable) complex). Also, the ka2 in series [4] (Biacore T200, RVV-V on CM5 chip, PBS, peptide 62.5 uM to 1 mM, second step (conformational change)) turned out to be 0.0002809 s⁻¹; in series [4] (second reaction), 0.0002809 s⁻¹. The kd1 in series [4] (first (unstable) complex) stood at 2.414 s⁻¹.
As to `O=C(O)CN(CCN(CC(=O)O)CC(=O)O)CC(=O)O` [EDTA], in series [5], the “response of RVV-V to serine protease inhibitor” value is listed as “no response”.
